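Abbreviation: GI50, concentration required for 50% inhibition of growth. TGI denotes the concentration required for complete inhibition of growth.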
What was measured:
Experiment in all cases: inhibition of tumour cell growth, NCI panel, 384-well format
[1] = system: 786-0 renal
[2] = system: A498 renal
[3] = system: A549 NSCLC
[4] = system: ACHN renal
[5] = system: BT-549 breast
[6] = system: CAKI-1 renal
[7] = system: CCRF-CEM leukemia
[8] = system: DU-145 prostate
[9] = system: HCT-116 colon
[10] = system: HCT-15 colon
[11] = system: HL-60(TB) leukemia
[12] = system: HOP-62 NSCLC
[13] = system: HOP-92 NSCLC
[14] = system: HS 578T breast
[15] = system: K-562 leukemia
[16] = system: LOX IMVI melanoma
[17] = system: M14 melanoma
[18] = system: MALME-3M melanoma
[19] = system: MCF7 breast
[20] = system: MDA-MB-231 breast
[21] = system: MDA-MB-435 melanoma
[22] = system: MDA-MB-468 breast
[23] = system: MOLT-4 leukemia
[24] = system: NCI-H23 lung
[25] = system: NCI-H522 lung
[26] = system: NCI/ADR-RES ovarian
[27] = system: OVCAR-3 ovarian
[28] = system: OVCAR-5 ovarian
[29] = system: OVCAR-8 ovarian
[30] = system: PC-3 prostate
[31] = system: SF-268 CNS
[32] = system: SK-MEL-2 melanoma
[33] = system: SK-MEL-28 melanoma
[34] = system: SK-OV-3 ovarian
[35] = system: SN12C renal
[36] = system: SNB-19 CNS
[37] = system: T-47D breast
[38] = system: U251 glioblastoma
[39] = system: UACC-62 melanoma
[40] = system: UO-31 renal
[41] = system: COLO 205 colon
[42] = system: EKVX NSCLC
[43] = system: HCC-2998 colon
[44] = system: NCI-H322M lung
[45] = system: NCI-H460 NSCLC
[46] = system: OVCAR-4 ovarian
[47] = system: SF-295 CNS
[48] = system: SF-539 CNS
[49] = system: SK-MEL-5 melanoma
[50] = system: TK-10 renal
[51] = system: UACC-257 melanoma

SMILES: Nc1nc(F)nc2c1ncn2C1OC(COP(=O)(O)O)C(O)C1O (centres undefined)
- GI50 [1]: 33 µM
- GI50 [2]: 31.2 µM
- GI50 [3]: 36.1 µM
- GI50 [4]: 32.9 µM
- GI50 [5]: 20 µM
- TGI [5]: 96.9 µM
- GI50 [6]: 25.3 µM
- GI50 [7]: 1.91 µM
- TGI [7]: 3.57 µM
- GI50 [8]: 21.6 µM
- TGI [8]: 93.8 µM
- GI50 [9]: 19.3 µM
- GI50 [10]: 39.9 µM
- GI50 [11]: 3.71 µM
- TGI [11]: 11 µM
- GI50 [12]: 5.8 µM
- TGI [12]: 21.2 µM
- GI50 [13]: 30.9 µM
- GI50 [14]: 55 µM
- GI50 [15]: 58.4 µM
- GI50 [16]: 45.4 µM
- GI50 [17]: 8.5 µM
- TGI [17]: 37.3 µM
- GI50 [18]: 25.1 µM
- GI50 [19]: 41.2 µM
- GI50 [20]: 32.9 µM
- GI50 [21]: 49.9 µM
- GI50 [22]: 71 µM
- GI50 [23]: 1.53 µM
- TGI [23]: 2.89 µM
- GI50 [24]: 11.7 µM
- TGI [24]: 32.9 µM
- GI50 [25]: 59.7 µM
- GI50 [26]: 4.74 µM
- TGI [26]: 41.2 µM
- GI50 [27]: 58.4 µM
- GI50 [28]: 57.5 µM
- GI50 [29]: 3.16 µM
- TGI [29]: 15.8 µM
- GI50 [30]: 37.6 µM
- GI50 [31]: 48.3 µM
- GI50 [32]: 51.7 µM
- TGI [32]: 84.5 µM
- GI50 [33]: 7.83 µM
- GI50 [34]: 24 µM
- GI50 [35]: 4.96 µM
- TGI [35]: 21.8 µM
- GI50 [36]: 20.6 µM
- GI50 [37]: 83 µM
- GI50 [38]: 90.2 µM
- GI50 [39]: 23.2 µM
- TGI [39]: 54.1 µM
- GI50 [40]: 30.6 µM

SMILES: CCOC(=O)c1ccc2[nH]c(Cc3[nH]c4ccc(C(=O)OCC)cc4c3C)c(C)c2c1
- GI50 [1]: 1.4 µM
- TGI [1]: 11.7 µM
- GI50 [2]: 2.36 µM
- TGI [2]: 10.6 µM
- GI50 [3]: 1.92 µM
- TGI [3]: 14.6 µM
- GI50 [4]: 1.8 µM
- TGI [4]: 8.24 µM
- GI50 [7]: 0.763 µM
- TGI [7]: 11.7 µM
- GI50 [41]: 0.344 µM
- TGI [41]: 14.5 µM
- GI50 [8]: 3.05 µM
- TGI [8]: 17 µM
- GI50 [42]: 4.62 µM
- TGI [42]: 18.2 µM
- GI50 [43]: 1.56 µM
- TGI [43]: 16.1 µM
- GI50 [9]: 0.472 µM
- TGI [9]: 2.41 µM
- GI50 [10]: 0.0286 µM
- TGI [10]: 6.55 µM
- GI50 [13]: 2.07 µM
- TGI [13]: 7.98 µM
- GI50 [15]: 0.356 µM
- TGI [15]: 12.3 µM
- GI50 [16]: 0.481 µM
- TGI [16]: 1.91 µM
- GI50 [18]: 1.63 µM
- TGI [18]: 6.41 µM
- GI50 [20]: 0.601 µM
- TGI [20]: 12.1 µM
- GI50 [21]: 4.68 µM
- TGI [21]: 61.4 µM
- GI50 [22]: 1.08 µM
- TGI [22]: 7.27 µM
- GI50 [23]: 0.0514 µM
- TGI [23]: 0.274 µM
- GI50 [44]: 4.26 µM
- TGI [44]: 19.7 µM
- GI50 [45]: 0.281 µM
- TGI [45]: 2.07 µM
- GI50 [25]: 1.69 µM
- TGI [25]: 12.1 µM
- GI50 [27]: 2.97 µM
- TGI [27]: 12.7 µM
- GI50 [46]: 3.11 µM
- TGI [46]: 14.3 µM
- GI50 [28]: 2.73 µM
- TGI [28]: 32.1 µM
- GI50 [29]: 1.56 µM
- TGI [29]: 11.1 µM
- GI50 [47]: 0.464 µM
- TGI [47]: 4.59 µM
- GI50 [48]: 1.3 µM
- TGI [48]: 7.85 µM
- GI50 [33]: 3.4 µM
- TGI [33]: 23.1 µM
- GI50 [49]: 1.23 µM
- TGI [49]: 2.8 µM
- GI50 [34]: 4.64 µM
- TGI [34]: 18.6 µM
- GI50 [35]: 3.08 µM
- TGI [35]: 12.6 µM
- GI50 [36]: 5.4 µM
- TGI [36]: 21.3 µM
- GI50 [37]: 2.88 µM
- TGI [37]: 9.2 µM
- GI50 [50]: 0.498 µM
- TGI [50]: 11.4 µM
- GI50 [38]: 1.13 µM
- TGI [38]: 6.01 µM
- GI50 [51]: 9.7 µM
- TGI [51]: 25.3 µM
- GI50 [40]: 3.36 µM
- TGI [40]: 18.9 µM
